Data from patent US20060069132A1, “Azolecarboxamide herbicides” (priority 2004, published 2006).

Columns and labels:
bermudagrass = experiment: Test C pre-/postemergence herbicide test; type: in vivo, Cynodon dactylon; conditions: for Bermudagrass plant response rating: Preemergence, 500 g ai/ha
How it was run: (§1)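 Visual injury scores run from 0 (no effect) to 100 (complete control), assessed relative to untreated controls 12 to 14 days after treatment in the greenhouse. Chemicals were formulated in a non-phytotoxic solvent mixture with surfactant and applied to soil after planting or to emerged plants at the 1- to 4-leaf stage.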

soybean = experiment: Test C pre-/postemergence herbicide test; type: in vivo, Glycine max
How it was run: as §1

rice = experiment: Test B pre-/postemergence herbicide test; type: in vivo, Oryza sativa; conditions: preemergence
How it was run: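 Formulation: non-phytotoxic solvent mix with surfactant. Timing: preemergence on seed and postemergence on 2–18 cm plants, applied concurrently. Readout after 13–15 d greenhouse: visual 0–100 control rating against controls.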

barnyardgrass = experiment: Test C flooded paddy test; type: in vivo, Echinochloa crus-galli; conditions: for Plant response rating, Barnyardgrass: 500 g ai/ha, visual rating after 12 to 14 days
How it was run: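 Scoring by eye, 12–14 days post-treatment, greenhouse-held plants vs. controls; 0 no effect, 100 complete control. Sprayed at 1–4 leaves (2–18 cm); paddy barnyardgrass at 2 leaves, flooded.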

giant foxtail = experiment: Test C pre-/postemergence herbicide test; type: in vivo, Setaria faberi
How it was run: as §1

pigweed = experiment: Test C pre-/postemergence herbicide test; type: in vivo, Amaranthus retroflexus
How it was run: as §1

[1] = system: smallflower umbrella sedge; experiment: Test C flooded paddy test; type: in vivo, Cyperus difformis; conditions: for Plant response rating, Sedge, Umbrella: 500 g ai/ha, visual rating after 12 to 14 days
cocklebur = experiment: Test C pre-/postemergence herbicide test; type: in vivo, Xanthium strumarium; conditions: for Cocklebur plant response rating: 500 g ai/ha
How it was run: as §1

velvetleaf = experiment: Test C pre-/postemergence herbicide test; type: in vivo, Abutilon theophrasti
How it was run: as §1

morningglory = experiment: Test C pre-/postemergence herbicide test; type: in vivo, Ipomoea coccinea; set-up: key to Plant response rating, Morningglory: 0 = no effect, 100 = complete control
How it was run: as §1

yellow nutsedge = experiment: Test C pre-/postemergence herbicide test; type: in vivo, Cyperus esculentus
How it was run: as §1

[2] = system: common (oilseed) sunflower; experiment: Test C pre-/postemergence herbicide test; type: in vivo, Helianthus annuus; conditions: for Sunflower plant response rating: Preemergence, scale 0 to 100, 0 no effect, 100 complete control
How it was run: as §1

[3] = 125 g ai/ha, scale 0 (no effect) to 100 (complete control), visual, 12 to 14 days, preemergence
[4] = 250 g ai/ha, scale 0 to 100 (0 no effect, 100 complete control), visual, 12 to 14 days, preemergence
[5] = Postemergence, 250 g ai/ha, scale 0 to 100, 0 no effect, 100 complete control
[6] = scale 0 to 100, 0 no effect, 100 complete control
[7] = Postemergence, 500 g ai/ha, scale 0 to 100
[8] = Preemergence, 500 g ai/ha, scale 0 to 100, 0 no effect, 100 complete control
[9] = postemergence, 125 g ai/ha, scale 0 to 100
[10] = postemergence, 62 g ai/ha, scale 0 to 100
[11] = 500 g ai/ha, visual rating 0-100, 0 no effect, 100 complete control
[12] = 62 g ai/ha, scale 0 to 100 (0 no effect, 100 complete control)
[13] = 125 g ai/ha, scale of 0 to 100, 0 is no effect, 100 is complete control
[14] = 250 g ai/ha, scale of 0 to 100, 0 is no effect, 100 is complete control
[15] = scale 0 to 100 (0 no effect, 100 complete control)
[16] = 125 g ai/ha, scale 0 to 100 (0 no effect, 100 complete control)
[17] = Preemergence, scale 0 to 100, 0 no effect, 100 complete control
[18] = 62 g ai/ha, preemergence, scale 0 to 100, 0 no effect, 100 complete control
[19] = 62 g ai/ha, preemergence, scale 0 to 100
[20] = 125 g ai/ha, 0 = no effect, 100 = complete control
[21] = 250 g ai/ha, scale 0-100, preemergence
[22] = 500 g ai/ha, scale 0 to 100 (0 no effect, 100 complete control), visual, 12 to 14 days, preemergence

## CCn1nc(C(C)(C)C)cc1C(=O)Nc1cccc(C(=O)NC2CC2)n1 [Compound 146]
bermudagrass; 62 g ai/ha, preemergence
  Plant response rating (0 = no effect, 100 = complete control), Bermudagrass: 10
bermudagrass; [3]
  Plant response rating, Bermudagrass: 60
bermudagrass; [4]
  Plant response rating, Bermudagrass: 70
bermudagrass; [5]
  Plant response rating, Bermudagrass: 0
bermudagrass; [6]
  Bermudagrass plant response rating: 90
soybean; 62 g ai/ha, preemergence
  Plant response rating (0 = no effect, 100 = complete control), Soybean: 0
soybean; [3]
  Plant response rating, Soybean: 0
soybean; [7]
  Soybean plant response rating: 80
soybean; [5]
  Plant response rating, Soybean: 30
soybean; [8]
  Soybean plant response rating: 0
soybean; [9]
  Plant response rating, Soybean: 20
soybean; [10]
  Plant response rating, Soybean: 20
rice; [11]
  Plant response rating, Rice: 40
rice; 125 g ai/ha, 0 to 100 scale, 0 is no effect, 100 is complete control
  Plant response rating, Rice: 10
barnyardgrass; [12]
  Barnyardgrass plant response rating: 0
barnyardgrass; [13]
  Barnyardgrass plant response rating: 0
barnyardgrass; [14]
  Barnyardgrass plant response rating: 0
barnyardgrass; [15]
  Plant response rating, Barnyardgrass: 20
Giant foxtail; 62 g ai/ha, preemergence
  Plant response rating (0 = no effect, 100 = complete control), Foxtail, Giant: 0
Giant foxtail; [3]
  Plant response rating, Foxtail, Giant: 10
Giant foxtail; [4]
  Plant response rating, Foxtail, Giant: 60
Giant foxtail; [7]
  Foxtail, Giant plant response rating: 10
Giant foxtail; [5]
  Plant response rating, Foxtail, Giant: 0
Giant foxtail; [8]
  Foxtail, Giant plant response rating: 80
Giant foxtail; [9]
  Plant response rating, Foxtail, Giant: 0
Giant foxtail; [10]
  Plant response rating, Foxtail, Giant: 0
pigweed; 62 g ai/ha, preemergence
  Plant response rating (0 = no effect, 100 = complete control), Pigweed: 80
pigweed; [3]
  Plant response rating, Pigweed: 95
pigweed; [7]
  Pigweed plant response rating: 100
pigweed; [5]
  Plant response rating, Pigweed: 100
pigweed; [8]
  Pigweed plant response rating: 100
pigweed; [9]
  Plant response rating, Pigweed: 90
pigweed; [10]
  Plant response rating, Pigweed: 80
[1]; [12]
  Sedge, Umbrella plant response rating: 60
[1]; [16]
  Sedge, Umbrella plant response rating: 80
[1]; [14]
  Sedge, Umbrella plant response rating: 90
[1]; [15]
  Plant response rating, Sedge, Umbrella: 90
cocklebur; 62 g ai/ha, preemergence
  Plant response rating (0 = no effect, 100 = complete control), Cocklebur: 0
cocklebur; [3]
  Plant response rating, Cocklebur: 0
cocklebur; [4]
  Plant response rating, Cocklebur: 0
cocklebur; Postemergence, scale 0 to 100
  Cocklebur plant response rating: 20
cocklebur; [5]
  Plant response rating, Cocklebur: 10
cocklebur; [17]
  Cocklebur plant response rating: 0
cocklebur; [9]
  Plant response rating, Cocklebur: 5
cocklebur; [10]
  Plant response rating, Cocklebur: 5
velvetleaf; [3]
  Plant response rating, Velvetleaf: 40
velvetleaf; [7]
  Velvetleaf plant response rating: 40
velvetleaf; [5]
  Plant response rating, Velvetleaf: 40
velvetleaf; [8]
  Velvetleaf plant response rating: 100
velvetleaf; [9]
  Plant response rating, Velvetleaf: 35
velvetleaf; [10]
  Plant response rating, Velvetleaf: 30
morningglory; 62 g ai/ha, preemergence
  Plant response rating (0 = no effect, 100 = complete control), Morningglory: 0
morningglory; [3]
  Plant response rating, Morningglory: 5
morningglory; [7]
  Morningglory plant response rating: 0
morningglory; [5]
  Plant response rating, Morningglory: 0
morningglory; [8]
  Morningglory plant response rating: 50
morningglory; [9]
  Plant response rating, Morningglory: 0
morningglory; [10]
  Plant response rating, Morningglory: 0
Yellow nutsedge; 62 g ai/ha, preemergence
  Plant response rating (0 = no effect, 100 = complete control), Nutsedge, Yellow: 0
Yellow nutsedge; [3]
  Plant response rating, Nutsedge, Yellow: 0
Yellow nutsedge; [7]
  Nutsedge, Yellow plant response rating: 0
Yellow nutsedge; [5]
  Plant response rating, Nutsedge, Yellow: 0
Yellow nutsedge; [8]
  Nutsedge, Yellow plant response rating: 0
Yellow nutsedge; [9]
  Plant response rating, Nutsedge, Yellow: 0
Yellow nutsedge; [10]
  Plant response rating, Nutsedge, Yellow: 0
[2]; 62 g ai/ha, preemergence
  Plant response rating (0 = no effect, 100 = complete control), Sunflower: 0
[2]; [3]
  Plant response rating, Sunflower: 0
[2]; 500 g ai/ha
  Sunflower plant response rating: 0

## CCc1nn(C(C)(C)C)cc1C(=O)Nc1cccc(C(C)=NO)c1 [Compound 188]
bermudagrass; [18]
  Plant response rating, Bermudagrass: 75
bermudagrass; [3]
  Plant response rating, Bermudagrass: 100
bermudagrass; [4]
  Plant response rating, Bermudagrass: 100
bermudagrass; [6]
  Bermudagrass plant response rating: 100
soybean; [19]
  Plant response rating, Soybean: 0
soybean; [3]
  Plant response rating, Soybean: 0
soybean; [8]
  Soybean plant response rating: 0
rice; [20]
  Rice plant response rating (0 to 100 scale): 50
rice; [11]
  Plant response rating, Rice: 70
barnyardgrass; [12]
  Barnyardgrass plant response rating: 35
barnyardgrass; [13]
  Barnyardgrass plant response rating: 55
barnyardgrass; [14]
  Barnyardgrass plant response rating: 75
barnyardgrass; [15]
  Plant response rating, Barnyardgrass: 85
Giant foxtail; [19]
  Plant response rating, Foxtail, Giant: 0
Giant foxtail; [3]
  Plant response rating, Foxtail, Giant: 55
Giant foxtail; [4]
  Plant response rating, Foxtail, Giant: 70
Giant foxtail; [8]
  Foxtail, Giant plant response rating: 100
pigweed; [19]
  Plant response rating, Pigweed: 95
pigweed; [3]
  Plant response rating, Pigweed: 95
pigweed; [8]
  Pigweed plant response rating: 100
[1]; [12]
  Sedge, Umbrella plant response rating: 30
[1]; [16]
  Sedge, Umbrella plant response rating: 75
[1]; [14]
  Sedge, Umbrella plant response rating: 80
[1]; [15]
  Plant response rating, Sedge, Umbrella: 85
cocklebur; [19]
  Plant response rating, Cocklebur: 0
cocklebur; [3]
  Plant response rating, Cocklebur: 0
cocklebur; [4]
  Plant response rating, Cocklebur: 0
cocklebur; [17]
  Cocklebur plant response rating: 0
velvetleaf; [19]
  Plant response rating, Velvetleaf: 0
velvetleaf; [3]
  Plant response rating, Velvetleaf: 0
velvetleaf; [8]
  Velvetleaf plant response rating: 75
morningglory; [19]
  Plant response rating, Morningglory: 0
morningglory; [8]
  Morningglory plant response rating: 75
Yellow nutsedge; [19]
  Plant response rating, Nutsedge, Yellow: 0
Yellow nutsedge; [3]
  Plant response rating, Nutsedge, Yellow: 0
Yellow nutsedge; [8]
  Nutsedge, Yellow plant response rating: 0
[2]; [19]
  Plant response rating, Sunflower: 0
[2]; [3]
  Plant response rating, Sunflower: 0
[2]; 500 g ai/ha
  Sunflower plant response rating: 0

## CCc1nc(C(C)(C)C)sc1C(=O)Nc1cccc(C(=O)NCC2CC2)n1 [Compound 215]
bermudagrass; [18]
  Plant response rating, Bermudagrass: 40
bermudagrass; [3]
  Plant response rating, Bermudagrass: 70
bermudagrass; [21]
  Plant response rating, Bermudagrass: 85
bermudagrass; [6]
  Bermudagrass plant response rating: 100
soybean; [19]
  Plant response rating, Soybean: 0
soybean; [21]
  Plant response rating, Soybean: 0
soybean; [22]
  Plant response rating, Soybean: 0
rice; [20]
  Rice plant response rating (0 to 100 scale): 0
rice; 500 g ai/ha, visual rating, 0 = no effect, 100 = complete control
  Plant response rating, Rice: 0
barnyardgrass; [12]
  Barnyardgrass plant response rating: 0
barnyardgrass; [16]
  Barnyardgrass plant response rating: 0
barnyardgrass; [14]
  Barnyardgrass plant response rating: 40
barnyardgrass; [15]
  Plant response rating, Barnyardgrass: 50
Giant foxtail; [19]
  Plant response rating, Foxtail, Giant: 0
Giant foxtail; [3]
  Plant response rating, Foxtail, Giant: 50
Giant foxtail; [21]
  Plant response rating, Foxtail, Giant: 70
Giant foxtail; [22]
  Plant response rating, Foxtail, Giant: 100
pigweed; [19]
  Plant response rating, Pigweed: 80
pigweed; [3]
  Plant response rating, Pigweed: 100
pigweed; [21]
  Plant response rating, Pigweed: 100
pigweed; [22]
  Plant response rating, Pigweed: 100
[1]; [12]
  Sedge, Umbrella plant response rating: 40
[1]; [16]
  Sedge, Umbrella plant response rating: 40
[1]; [14]
  Sedge, Umbrella plant response rating: 70
[1]; [15]
  Plant response rating, Sedge, Umbrella: 90
cocklebur; [19]
  Plant response rating, Cocklebur: 0
cocklebur; [3]
  Plant response rating, Cocklebur: 0
cocklebur; [21]
  Plant response rating, Cocklebur: 0
cocklebur; [17]
  Cocklebur plant response rating: 60
velvetleaf; [19]
  Plant response rating, Velvetleaf: 0
velvetleaf; [21]
  Plant response rating, Velvetleaf: 40
velvetleaf; [22]
  Plant response rating, Velvetleaf: 100
morningglory; [19]
  Plant response rating, Morningglory: 0
morningglory; [3]
  Plant response rating, Morningglory: 0
morningglory; [21]
  Plant response rating, Morningglory: 0
morningglory; [22]
  Plant response rating, Morningglory: 40
Yellow nutsedge; [19]
  Plant response rating, Nutsedge, Yellow: 0
Yellow nutsedge; [3]
  Plant response rating, Nutsedge, Yellow: 0
Yellow nutsedge; [21]
  Plant response rating, Nutsedge, Yellow: 0
Yellow nutsedge; [22]
  Plant response rating, Nutsedge, Yellow: 0
[2]; [19]
  Plant response rating, Sunflower: 0
[2]; [21]
  Plant response rating, Sunflower: 0
[2]; [22]
  Plant response rating, Sunflower: 0
